The text below walks through data of patent US4939137A, “Ring-fused thienopyrimidinedione derivatives” (Ortho Pharmaceutical Corporation, priority 1989, dated 1990).

Test [1] relates to spontaneously hypertensive rats (SHR). Put plainly: Antihypertensive Activity: Spontaneously Hypertensive Rat (SHR test). The test is classed as in vivo, rat (male spontaneously hypertensive). The conditions noted are these: Rattus norvegicus, dose 5 mpk, p.o. or i.v., read-out: SHR TEST: change in blood pressure (delta % of control). Here is the method:
Mean arterial pressure and heart rate were monitored from directly cannulated animals. Compounds were administered p.o. or i.v. and blood pressure was recorded for various time intervals post dosing.
Blood pressure changes (expressed as change in control pressure and reported as delta % of control for each animal) were analyzed statistically using a one way analysis of variance with a Dunnett's test. P values less than 0.05 were considered significant.

Test [2] deals with alpha-1 adrenergic receptor. Put plainly: Brain Alpha-1 Radioreceptor Assay (3H-prazosin). Conditions: guinea pig brain membranes, 30 minutes, 30° C., read-out: RECEPTOR BINDING ALPHA-1 (IC50). The protocol: Membrane fragments were prepared from the brains of mature female guinea pigs after removal of the corpus striata. The alpha-1 adrenergic receptor sites were labeled with ^3 H-prazosin. Membrane fragments, ^3 H-prazosin and an unlabeled test compound were incubated for 30 minutes at 30° C. Compound bound to the receptor site was separated from the remaining unbound radioligand by vacuum filtration. Specific binding was determined by the difference between total counts bound and counts bound in the presence of 10-^5 M phentolamine.

The target of the next test is T1, 5HT2 receptor (Rattus norvegicus, UniProt P14842).
T1 construct: Membrane fragments were prepared from the frontal cortex dissected from brains obtained from female rats; from tissue; host or cells: frontal cortex, female rats
T1 sequence (P14842 whole entry, the tested form may be a part): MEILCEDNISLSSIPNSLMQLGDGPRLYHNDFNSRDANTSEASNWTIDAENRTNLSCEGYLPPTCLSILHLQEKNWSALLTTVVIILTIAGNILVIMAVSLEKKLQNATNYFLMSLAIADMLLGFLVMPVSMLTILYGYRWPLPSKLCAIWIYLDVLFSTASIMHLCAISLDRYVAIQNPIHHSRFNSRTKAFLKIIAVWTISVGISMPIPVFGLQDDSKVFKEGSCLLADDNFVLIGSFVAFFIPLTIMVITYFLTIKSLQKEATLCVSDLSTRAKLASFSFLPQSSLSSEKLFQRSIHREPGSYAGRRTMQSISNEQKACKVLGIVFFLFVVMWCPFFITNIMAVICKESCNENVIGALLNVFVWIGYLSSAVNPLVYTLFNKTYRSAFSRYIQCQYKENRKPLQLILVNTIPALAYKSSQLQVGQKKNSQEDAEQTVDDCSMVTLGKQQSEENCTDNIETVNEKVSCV
Put plainly: Brain Serotonin 5HT2 Radioreceptor Assay (3H-ketanserin). The test is classed as binding. The conditions noted are these: for inhibition at 1 µM: 0.25 h, @ 10^-6, rat frontal cortex membranes, read-out: RECEPTOR BINDING 5HT-2, % @ 10^-6; for IC50: rat frontal cortex membranes, 15 minutes, 37° C., read-out: RECEPTOR BINDING 5HT-2 (IC50). Here is the method:
Membrane fragments were prepared from the frontal cortex dissected from brains obtained from female rats (~150 g). The 5HT2 sites were labeled with ^3 H-ketanserin. Membrane fragments, ^3 H-ketanserin and an unlabeled test compound were incubated for 15 minutes at 37° C. Compound bound to the receptor site was separated from the remaining unbound compound by vacuum filtration.
The ability of a nonlabeled compound to compete with ^3 H-ketanserin for binding sites was a measure of the compound's affinity for the 5HT2 receptor. Specific binding was determined by the difference between total counts bound and counts bound in the presence of 10^-6 M methysergide.
Data are presented as the IC50, the concentration of nonlabeled compound required to displace 50% of the ^3 H-ketanserin specifically bound to 5HT2 binding sites.

For another test, the target named is T2, 5HT1A receptor (Rattus norvegicus, UniProt P19327).
T2 construct: Membrane fragments were prepared from the frontal cortex dissected from brains obtained from female rats; from tissue; host or cells: frontal cortex, female rats
T2 sequence (P19327 1-422): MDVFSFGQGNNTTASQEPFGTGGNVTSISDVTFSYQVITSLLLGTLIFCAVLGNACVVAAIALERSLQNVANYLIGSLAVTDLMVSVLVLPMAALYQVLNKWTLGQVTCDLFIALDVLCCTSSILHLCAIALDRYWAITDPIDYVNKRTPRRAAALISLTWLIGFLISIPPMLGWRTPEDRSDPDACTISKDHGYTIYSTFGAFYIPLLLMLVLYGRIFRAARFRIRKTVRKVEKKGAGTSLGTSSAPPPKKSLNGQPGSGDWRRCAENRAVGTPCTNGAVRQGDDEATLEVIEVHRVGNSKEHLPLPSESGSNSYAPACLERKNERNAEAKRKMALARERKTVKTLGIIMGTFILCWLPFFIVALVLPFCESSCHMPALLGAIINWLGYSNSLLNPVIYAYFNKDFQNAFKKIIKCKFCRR
Put plainly: Brain Serotonin 5HT1A Radioreceptor Assay (3H-80H-DPAT). The conditions noted are these: for inhibition at 1 µM: @ 10^-6, rat frontal cortex membranes, read-out: RECEPTOR BINDING 5HT-1A, % @ 10^-6; for IC50: rat frontal cortex membranes, 10 minutes, 37° C., read-out: RECEPTOR BINDING 5HT-1A (IC50). The test is classed as binding. The protocol:
Membrane fragments were prepared from the frontal cortex dissected from brains obtained from female rats (~150 g). The 5HT1A sites were labeled with ^3 H-80H-dipropylaminotetralin (^3 H-80H-DPAT). Membrane fragments, ^3 H-80H-DPAT and an unlabeled test compound were incubated for 10 minutes at 37° C. The tubes were then placed in an ice bath for an additional 10 minutes. Compound bound to the receptor site was separated from the remaining unbound compound by vacuum filtration.
The ability of a nonlabeled compound to compete with ^3 H-80H-DPAT for binding sites was a measure of the compound's affinity for the 5HT1A receptor. Specific binding was determined by the difference between total counts bound and counts bound in the presence of 10^-5 M serotonin.
Data are presented at the IC50, the concentration of nonlabeled compound required to displace 50% of the ^3 H-80H-DPAT specifically bound to 5HT1A binding sites.

Consider `O=C1CCn2c(=O)n(CCN3CCN(c4ccc(F)cc4)CC3)c(=O)c3csc1c32` [Example 9, 3,4,5,7,8,9-Hexahydro-4-[2-[4-(4-fluorophenyl)piperazin-1-yl]ethyl]thieno[4,3,2-de]pyrido[1,2-c]pyrimidine-3,5,9-trione], for which the change in vivo at 5 mg/kg in test [1] is -21.5%.

Turning to `COc1ccccc1N1CCN(CCn2c(=O)c3csc4c3n(c2=O)CCCC4=O)CC1` [Example 15, 4,7,8,9-Tetrahydro-4-[2-[4-(2-methoxyphenyl)-piperazin-1-yl]ethyl]thieno[4,3,2-de]pyrimido[3,4-a]azepine-3,5,10-trione], in test [1], the change in vivo at 5 mg/kg is -29.8%.

In general, IC50 refers to the concentration that inhibits the measured activity by half. As for `O=C1CCn2c(=O)n(CCN3CC=C(c4ccccc4)CC3)c(=O)c3csc1c32` [Example 17, 3,4,5,7,8,9-Hexahydro-4-[2-(4-phenyl-1,2,3,6-tetrahydropyridin-1-yl)ethyl]thieno[4,3,2-de]pyrido[1,2-c]pyrimidine-3,5,9-trione], in test [2], the IC50 is 7.6 nM. Also, the results for the inhibition at 1 µM on 5HT2 receptor and at 5HT1A receptor were 21% and 1.8%, respectively.

Regarding `O=C1CCn2c(=O)n(CCN3CCC(C(=O)c4ccc(F)cc4)CC3)c(=O)c3csc1c32` [Example 19, 4-[2-[4-(4-Fluorobenzoyl)piperidin-1-yl]ethyl]-3,4,5,7,8,9-hexahydrothieno[4,3,2-de]pyrido[1,2-c]pyrimidine-3,5,9-trione], the values for the half-maximal inhibitory concentration (IC50) (in test [2]; on 5HT2 receptor) were 1000 nM and 1 nM, respectively. In addition, on 5HT1A receptor, the inhibition at 1 µM turned out to be 35%.

In the case of `O=C1CCn2c(=O)n(CCN3CCC(=C(c4ccc(F)cc4)c4ccc(F)cc4)CC3)c(=O)c3csc1c32` [Example 20, 4-[2-[4-[Bis(4-fluorophenyl)methylene]piperidin-1-yl]ethyl]-3,4,5,7,8,9-hexahydrothieno[4,3,2-de]pyrimidine-3,5,9-trione], the IC50 in test [2] amounted to 22000 nM; at 5HT2 receptor, 180 nM. Further, the inhibition at 1 µM on 5HT1A receptor is 47%.

Consider `COc1ccccc1N1CCN(CCn2c(=O)c3csc4c3n(c2=O)CCCC4O)CC1` (stereo not shown) [Example 22, 10-Hydroxy-4,7,8,9-tetrahydro-4-[2-[4-(2-methoxyphenyl)piperazin-1-yl]ethyl]thieno[4,3,2-de]pyrimido[3,4-a]azepine-3,5-dione], for which the IC50 worked out at 0.4 nM in test [2], 270 nM on 5HT2 receptor and 62 nM at 5HT1A receptor.

For `COc1ccccc1N1CCN(CCn2c(=O)c3c(C)sc4c3n(c2=O)CCC4O)CC1` (stereo not shown) [Example 23, 3,4,5,7,8,9-Hexahydro-9-hydroxy-4-[2-[4-(2-methoxyphenyl)piperazin-1-yl]ethyl]-2-methyl-thieno[4,3,2-de]pyrido[1,2-c]pyrimidine-3,5-dione], in test [1], the change in vivo at 5 mg/kg is -27.4%.

On to `CON=C1CCCn2c(=O)n(CCN3CCN(c4ccccc4OC)CC3)c(=O)c3csc1c32` [Example 27, 4,7,8,9-Tetrahydro-10-methoxyimino-4-[2-[4-(2-methoxyphenyl)piperazin-1-yl]ethyl]thieno[4,3,2-de]pyrimido[3,4-a]azepine-3,5-dione], for which the results for the IC50 (in test [2]; at 5HT1A receptor) were 0.14 nM and 70 nM, respectively. For the same compound, the inhibition at 1 µM at 5HT2 receptor is 11%.

Turning to `CON=C1CCn2c(=O)n(CCN3CCN(c4ccccc4OC)CC3)c(=O)c3c(C)sc1c32` [Example 28, 3,4,5,7,8,9-Hexahydro-9-methoxyimino-4-[2-[4-(2-methoxyphenyl)piperazin-1-yl]ethyl]-2-methyl-thieno[4,3,2-de]pyrido[1,2-c]pyrimidine-3,5-dione], the values for the IC50 (in test [2]; on 5HT2 receptor; on 5HT1A receptor) were less than 1 nM, 150 nM and 20 nM, respectively.

For `CON=C1CCn2c(=O)n(CCCN3CCN(c4ccccc4OC)CC3)c(=O)c3csc1c32` [Example 29, 3,4,5,7,8,9-Hexahydro-9-methoxyimino-4-[3-[4-(2-methoxyphenyl)piperazin-1-yl]propyl]thieno-[4,3,2-de]pyrido[1,2-c]pyrimidine-3,5-dione], the IC50 in test [2] stood at 26 nM. Besides, the figures for the inhibition at 1 µM on 5HT2 receptor and on 5HT1A receptor were 34.3% and 5.2%, respectively.

Turning to `COc1ccccc1N1CCN(CCn2c(=O)c3csc4c3n(c2=O)CCC4OC(=O)C(C)C)CC1` (stereo not shown) [Example 33, 3,4,5,7,8,9-Hexahydro-9-(2-methylpropanoyloxy)-4-[2-[4-(2-methoxyphenyl)piperazin-1-yl]ethyl]thieno[4,3,2-de]pyrido[1,2-c]pyrimidine-3,5-dione], in test [1], the change in vivo at 5 mg/kg is -32%.

Turning to `COc1ccccc1N1CCN(CCn2c(=O)c3csc4c3n(c2=O)CCC4OC(=O)C(C)(C)C)CC1` (stereo not shown) [Example 34, 3,4,5,7,8,9-Hexahydro-4-[2-[4-(2-methoxyphenyl)piperazin-1-yl]ethyl]-9-[(2,2-dimethyl)propanoyloxy]thieno[4,3,2-de]pyrido[1,2-c]pyrimidine-3,5-dione], the change in vivo at 5 mg/kg in test [1] is -26%.

Regarding `COc1ccc(C(=O)OC2CCn3c(=O)n(CCN4CCN(c5ccccc5OC)CC4)c(=O)c4csc2c43)cc1` (stereo not shown) [Example 36, 3,4,5,7,8,9-Hexahydro-9-(4-methoxy)benzoyloxy-4-[2-[4-(2-methoxyphenyl)piperazin-1-yl]ethyl]thieno[4,3,2-de]pyrido[1,2-c]pyrimidine-3,5-dione], in test [1], the change in vivo at 5 mg/kg is -14%.

Take `COc1ccccc1N1CCN(CCn2c(=O)c3csc4c3n(c2=O)CCC4OC(=O)c2ccc(Cl)cc2)CC1` (stereo not shown) [Example 37, 9-(4-Chlorobenzoyloxy)-3,4,5,7,8,9-hexahydro-4-[2-[4-(2-methoxyphenyl)piperazin-1-yl]ethyl]thieno[4,3,2-de]pyrido[1,2-c]pyrimidine-3,5-dione]: the change in vivo at 5 mg/kg in test [1] was -30.2%.

Regarding `COc1ccccc1N1CCN(CCn2c(=O)c3csc4c3n(c2=O)CCC4NC(C)=O)CC1` (stereo not shown) [Example 39, 9-Acetylamino-3,4,5,7,8,9-hexahydro-4-[2-[4-(2-methoxyphenyl)piperazin-1-yl]ethyl]thieno[4,3,2-de]pyrido[1,2-c]pyrimidine-3,5-dione], the IC50 was determined as 0.35 nM in test [2], 750 nM at 5HT2 receptor and 580 nM at 5HT1A receptor.

In the case of `COc1ccccc1N1CCN(CCn2c(=O)c3csc4c3n(c2=O)CCC4NC(=O)c2ccccc2)CC1` (stereo not shown) [Example 40, 9-Benzoylamino-3,4,5,7,8,9-hexahydro-4-[2-[4-(2-methoxyphenyl)piperazin-1-yl]ethyl]thieno[4,3,2-de]pyrido[1,2-c]pyrimidine-3,5-dione], the results for the IC50 (in test [2]; at 5HT2 receptor) were 3 nM and 2500 nM, respectively. Besides, the inhibition at 10 µM on 5HT1A receptor (@ 10^-5, rat frontal cortex membranes, read-out: RECEPTOR BINDING 5HT-1A, % @ 10^-5) is 45%.

With `CON=C1CCn2c(=O)n(CCN3CCN(c4cccc(Cl)c4)CC3)c(=O)c3csc1c32` [Example 41, 4-[2-[4-(3-Chlorophenyl)piperazin-1-yl]ethyl]-3,4,5,7,8,9-hexahydro-9-methoxyiminothieno[4,3,2-de]pyrido[1,2-c]pyrimidine-3,5-dione], the values for the concentration for half-maximal inhibition (IC50) (in test [2]; at 5HT2 receptor; at 5HT1A receptor) were 40000 nM, 1000 nM and 1000 nM, respectively.

Consider `O=C1CCn2c(=O)n(CCCCN3CCC(C(=O)c4ccc(F)cc4)CC3)c(=O)c3csc1c32` [Example 42, 4-[4-[4-(4-Fluorobenzoyl)piperidin-1-yl]butyl]-3,4,5,7,8,9-hexahydrothieno[4,3,2-de]pyrido[1,2-c]pyrimidine-3,5,9-trione], for which the IC50 is 540 nM in test [2], 630 nM at 5HT2 receptor and 400 nM at 5HT1A receptor.
